Assays:
[1] = test system: isolated porcine aortic adventitia; experiment: Biaxial tensile measurements on isolated porcine aortic adventitia; conditions: 25% stretch, UV-A 365 nm, 45 mW/cm^2, 10 minutes, n=23
Method: Twenty-three porcine aortas from the abdominal region were used in this study and processed initially as described in Example 1. Irradiation was conducted in the presence of a solution of riboflavin 5′-phosphate monosodium salt in saline in accordance with the procedure of Example 1. The isolated adventitial specimens were then cut into squares of 14 mm×14 mm, and thickness was measured with a digital caliper at three spots and averaged. The tensile properties were measured and recorded biaxially in the CS BioTester™ 5000 biotesting system (CellScale Biomaterials Testing, Waterloo, ON, Canada), equipped with two 2.5-N load cells, using a set of four BioRakes™ that consisted each of 5 tungsten tines spaced evenly. All samples were submerged in a temperature-controlled bath containing PBS at 37° C., and tested by stretching the gripped area (11 mm×11 mm) to 25% of total stretch, at a rate of 1%/s. The samples were preconditioned for 10 cycles, and the tenth cycle was used for subsequent analysis. Assuming that tissue was incompressible and had negligible shear components, the Cauchy stress (σ) was determined with the equations: […]
In these equations, F is the measured load, λ is the stretch, X is the initial length, T is the averaged initial thickness of the tissue sample. […] The stretch was calculated as follows: […]
These characteristics were evaluated for 25% stretch (strain). […]

[2] = test system: isolated porcine aortic adventitia subjected to collagenase; experiment: Uniaxial tensile testing of enzymatically degraded (collagenolysis) isolated porcine aortic adventitia; conditions: collagenase 20 U/mL, 8 or 20 hours, UV-A 365 nm, 45 mW/cm^2, 10 minutes
Method: An Instron Materials Testing System Model #5943 (Instron, Norwood, MA, USA), equipped with a 50-N load cell, was used to measure uniaxially the tensile properties of isolated adventitia specimens (n=30), prior to and after irradiation. Irradiation was conducted in the presence of a solution of riboflavin 5′-phosphate monosodium salt in saline in accordance with the procedure of Example 1. Before measurements, each specimen was soaked in phosphate buffered saline (PBS) for at least 1 hour at room temperature. Strips (1 cm×3 cm) were cut, and their thickness and width were measured with a digital caliper (Digimax Global Inc., Toronto, Canada). Thirty measurements for specimens in each set of samples (non-irradiated and irradiated) were carried out along the longitudinal direction at a set gauge distance of 16 mm and a speed of 10 mm/min. The values for Young's moduli were computed from the recorded stress-strain plots in the linear region.
Thirty porcine adventitial specimens were isolated and exposed to UV-A radiation as described in Example 1. Irradiation was conducted in the presence of a solution of riboflavin 5′-phosphate monosodium salt in saline in accordance with the procedure of Example 1. Non-irradiated and irradiated adventitial specimens, as sets of 10 pieces each (5 cm×3 cm), were soaked in saline for 1 hour with gentle shaking, and then placed into the wells of 6-well plates. A solution containing 20 U/mL (˜0.08 mg/mL) collagenase was prepared in Tris buffer (0.05 M, pH 7.4), which also contained calcium chloride (10 mM) and sodium azide (0.02%). To each well, 5 mL of this solution was added to cover the samples. The well plates were placed in an orbital shaker and shaken at 160 rpm for either 8 hours or 20 hours at 37° C. […]
The three sets of adventitial specimens designated as (1), (2) and (3) in Example 5 were evaluated by uniaxial tensile testing following the procedure described in Example 2. […]

[3] = test system: isolated porcine aortic adventitia; experiment: Uniaxial tensile measurements on isolated porcine aortic adventitia, irradiated vs non-irradiated; conditions: 0.1% w/v in saline, UV-A 365 nm, 45 mW/cm^2, 10 minutes, both sides, n=30
Method: Twenty-five porcine aortas from the abdominal region were used in this study, sourced from an abattoir. The aorta specimens were processed by first removing the extraneous adipose and loose connective tissue debris from the external surface using surgical scissors. One cut was then performed along the longitudinal axis of each aortic tube, in order to obtain flat rectangular sheets. A surgical scalpel was used to make an initial cornerwise-interstitial incision between adventitia and media layers, and the adventitial layer was carefully dissected and peeled off by hand. […] The irradiance at the exposure site was monitored with the radiometer Dymax ACCU-CAL 50 (Dymax Corp., Torrington, CT, USA). […]
An Instron Materials Testing System Model #5943 (Instron, Norwood, MA, USA), equipped with a 50-N load cell, was used to measure uniaxially the tensile properties of isolated adventitia specimens (n=30), prior to and after irradiation. […] Strips (1 cm×3 cm) were cut, and their thickness and width were measured with a digital caliper (Digimax Global Inc., Toronto, Canada). […] The values for Young's moduli were computed from the recorded stress-strain plots in the linear region.
Irradiation was conducted in the presence of a solution of riboflavin 5′-phosphate monosodium salt in saline in accordance with the procedure of Example 1. The results were expressed as mean values±standard error of the mean. […]

Cc1cc2nc3c(=O)[nH]c(=O)nc-3n(C[C@H](O)[C@H](O)[C@H](O)COP(=O)([O-])O)c2cc1C.[Na+] [riboflavin 5′-phosphate monosodium salt]
Cauchy stress, difference between non-irradiated and irradiated specimens ([1]; circumferential (p=1.4×10^−3) and longitudinal (p=5.3×10^−4)): high level of statistical significance | tangent modulus (stiffness), difference between non-irradiated and irradiated specimens ([1]; circumferential (p=6.8×10^−5) and longitudinal (p=7.1×10^−5)): high level of statistical significance | Young's modulus (stiffness) vs degradation time, samples first irradiated then subjected to collagenolysis (I/D) compared with D and D/I ([2]; 37° C., n=30): highest | ultimate stress (strength) vs degradation time, samples first irradiated then subjected to collagenolysis (I/D) compared with D and D/I ([2]; 37° C., n=30): highest | statistical differences between degraded non-irradiated samples (D) and those irradiated after degradation (D/I), modulus and stress ([2]; p~0.2-0.5): low significance | Young's modulus (stiffness), difference between non-irradiated and irradiated specimens ([3]; p=0.0012): statistically significant | ultimate stress (maximum load at the time of rupture), difference between non-irradiated and irradiated specimens ([3]; p=0.0015): statistically significant
